Laboratory results from ChEMBL document CHEMBL4825768 (ACS Med Chem Lett, 2021).

Tests used:
[1] = target: T1, GTPase KRas (Homo sapiens, UniProt P01116, G12C); assay: (§1) Inhibition of GDP-bound KRAS G12C mutant (1 to 169 residues) (unknown origin) assessed as inhibition of SOS-mediated nucleotide exchange pretreated with KRAS for 5 mins followed by incubation with SOS (564 to 1049 residues) and GTP for 30 mins and later incubated with GST-tagged cRAF (1 to 149 residues) for 10 mins by AlphaLISA assay; type: single protein
[2] = target: T1, GTPase KRas; assay: as §1, with “20 hrs” for “5 mins”; type: single protein
[3] = test system: GTPase KRas (Homo sapiens), P01116 [G12D]; assay: Binding affinity to GDP-bound KRAS G12D mutant (unknown origin) assessed as bound fraction at 100 uM incubated for 20 hrs by RF-MS analysis relative to control
[4] = target: T1, GTPase KRas; assay: Inhibition of KRAS G12C mutant in human MIA PaCa-2 cells assessed as reduction in phosphorylated ERK1/2 level incubated for 2 hrs by MSD assay; type: cell-based

Structure (SMILES) | IC50 [1] | IC50 [2] | Activity [3] | IC50 [4]
Cc1ccnc(C(C)C)c1-n1c(=O)nc(N2C[C@@H](C)N(C(=O)[C@H]3CO3)C[C@@H]2C)c2cc(Cl)c(-c3c(N)cccc3F)nc21 | 560 nM | 15 nM | 15.8% | –
Cc1ccnc(C(C)C)c1-n1c(=O)nc(N2CC(NC(=O)C3CO3)C2)c2cc(Cl)c(-c3ccccc3F)nc21 (centres undefined) | 4410 nM | 18 nM | – | –
Cc1ccnc(C(C)C)c1-n1c(=O)nc(N2CCN(C(=O)[C@H]3CO3)C[C@@H]2C)c2cc(Cl)c(-c3ccccc3F)nc21 | 3780 nM | 27 nM | 3.4% | –
CCOC(=O)[C@@H]1O[C@H]1C(=O)N1CCN(c2nc(=O)n(-c3c(C)ccnc3C(C)C)c3nc(-c4ccccc4F)c(Cl)cc23)[C@@H](C)C1 | 216 nM | 5 nM | 3.4% | 96 nM
Cc1ccnc(C(C)C)c1-n1c(=O)nc(N2CCN(C(=O)[C@@H]3O[C@H]3CO)C[C@@H]2C)c2cc(Cl)c(-c3ccccc3F)nc21 | 6260 nM | 64 nM | – | –
Cc1ccnc(C(C)C)c1-n1c(=O)nc(N2CCN(C(=O)C=O)C[C@@H]2C)c2cc(Cl)c(-c3ccccc3F)nc21 | 610 nM | 39 nM | – | 711 nM
Cc1ccnc(C(C)C)c1-n1c(=O)nc(N2CCN(C(=O)[C@@H]3O[C@H]3CN3CCCCC3)C[C@@H]2C)c2cc(Cl)c(-c3ccccc3F)nc21 | 1120 nM | 5 nM | – | –
COC(=O)/C=C/C(=O)N1CCN(c2nc(=O)n(-c3c(C)ccnc3C(C)C)c3nc(-c4ccccc4F)c(Cl)cc23)[C@@H](C)C1 | 95 nM | 26 nM | – | 61 nM
Cc1ccnc(C(C)C)c1-n1c(=O)nc(N2CCN(C(=O)C3OC3C)C[C@@H]2C)c2cc(Cl)c(-c3ccccc3F)nc21 (some centres undefined) | 17800 nM | 96 nM | – | –
Cc1ccnc(C(C)C)c1-n1c(=O)nc(N(C)C2CN(C(=O)C3CO3)C2)c2cc(Cl)c(-c3ccccc3F)nc21 (centres undefined) | 13800 nM | 227 nM | – | –
Cc1ccnc(C(C)C)c1-n1c(=O)nc(N2C[C@@H](C)N(C(=O)[C@H]3CO3)C[C@@H]2C)c2cc(Cl)c(-c3c(O)cccc3F)nc21 | 653 nM | 24 nM | 8.1% | –
